Key:
[1] = test system: histamine-induced contractions in guinea pig ileum; assay: Inhibition of histamine-induced contractions in guinea pig ileum (Assay 3); conditions: Cavia porcellus, histamine 1.7 μM, read-out: Inhibition of histamine-induced contraction (%)
Method in brief: (§1)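 Ileal strips from male Duncan Hartley guinea pigs were held at 1 g tension in 32° C oxygenated Krebs (pH 7.4) with isotonic transducers. After control contractions to 5-HT (2.6 μM) or histamine (1.7 μM), compound at 3 and 30 μM was added, its own effect noted, and agonist re-applied.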

[2] = test system: 5-HT-induced contractions in guinea pig ileum; assay: Inhibition of 5-HT-induced contractions in guinea pig ileum (Assay 3); conditions: Cavia porcellus, 5-HT 2.6 μM, read-out: Inhibition of 5-HT-induced contraction (%)
Method in brief: as §1

[3] = test system: α-smooth muscle actin (α-SMA) mRNA; assay: Anti-remodelling activity in human lung fibroblasts (HFL1): TGFβ-induced α-SMA mRNA (Assay 4); assay type: cell-based; conditions: Homo sapiens, HFL1 cells, TGFβ 10 ng/ml, 24 h, read-out: Inhibition of α-SMA mRNA synthesis (%)
Method in brief: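 Real-time RT-PCR of α-SMA mRNA, GAPDH as reference, measured after 24 h exposure of low-serum-primed HFL1 cells to 10 ng/ml TGFβ with test compounds (3 and 30 μM) in 10% FBS medium. Readout is inhibition of TGFβ-driven α-SMA mRNA overexpression.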

[4] = test system: IL-1α-induced PGE2 release; assay: IL-1α-induced PGE2 release in human diploid lung fibroblasts (WI-38) (Assay 5); assay type: cell-based; conditions: Homo sapiens, WI-38 cells, IL-1α 1 nM, overnight
Method in brief: (§2)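 Cell viability was read by Alamar Blue fluorescence (530/590 nm) after 4 h at 37 °C, following an overnight 37 °C incubation of human lung fibroblasts with 1 nM IL-1α and compound (3 or 30 μM) in 10% FBS MEM, pH 7.3. Supernatant PGE2 was measured by radioimmunoassay to derive percent inhibition.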

WI-38 cells = assay: Viability of WI-38 cells, Alamar Blue (Assay 5); assay type: cell-based, human
Method in brief: as §2

5-lipoxygenase = molecular target: T1, 5-lipoxygenase (Homo sapiens, UniProt P09917); assay: 5-lipoxygenase activity (LTB4) in human peripheral blood mononuclear leukocytes (Assay 6); assay type: cell-based; conditions: human PBMLs, A23187 30 μM, read-out: Inhibition of 5-LO (%)
T1 construct: endogenous in cells; host or cells: human peripheral blood mononuclear leukocytes (PBMLs)
T1 sequence (P09917 1-674): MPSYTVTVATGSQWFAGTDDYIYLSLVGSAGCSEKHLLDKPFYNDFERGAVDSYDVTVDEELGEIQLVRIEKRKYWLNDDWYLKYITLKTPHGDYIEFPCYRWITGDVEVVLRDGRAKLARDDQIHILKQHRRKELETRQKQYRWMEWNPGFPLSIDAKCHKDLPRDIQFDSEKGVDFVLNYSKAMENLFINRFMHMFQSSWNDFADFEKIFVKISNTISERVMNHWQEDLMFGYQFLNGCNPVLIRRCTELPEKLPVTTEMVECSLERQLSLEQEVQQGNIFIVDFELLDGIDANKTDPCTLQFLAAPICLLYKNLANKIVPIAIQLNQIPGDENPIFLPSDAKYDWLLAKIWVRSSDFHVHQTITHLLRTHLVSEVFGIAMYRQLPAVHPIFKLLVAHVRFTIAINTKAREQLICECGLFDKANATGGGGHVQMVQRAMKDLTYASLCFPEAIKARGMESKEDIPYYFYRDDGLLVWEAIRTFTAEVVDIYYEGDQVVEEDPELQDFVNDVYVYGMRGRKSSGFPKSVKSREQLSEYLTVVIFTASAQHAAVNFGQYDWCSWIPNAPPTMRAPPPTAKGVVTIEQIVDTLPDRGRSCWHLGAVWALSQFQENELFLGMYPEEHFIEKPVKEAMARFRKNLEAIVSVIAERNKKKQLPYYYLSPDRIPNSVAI
Method in brief: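 LTB4 in supernatant quantified by EIA after 15 min at 37° C. in HBSS, pH 7.4, where Ficoll-isolated human PBMLs (5×10^6) received ionophore A23187 (30 μM) and test compound (3 and 30 μM) or 0.1% DMSO vehicle.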

Row | Structure (SMILES) | inhibition at 3 µM (5-lipoxygenase) [%] | inhibition at 30 µM (5-lipoxygenase) [%] | inhibition at 3 µM [1] [%] | inhibition at 30 µM [1] [%] | inhibition at 3 µM [2] [%] | inhibition at 30 µM [2] [%] | inhibition at 3 µM [3] [%] | inhibition at 30 µM [3] [%] | inhibition at 3 µM [4] [%] | inhibition at 30 µM [4] [%] | Decrease in cell viability (%) (WI-38 cells; 3 μM) | Decrease in cell viability (%) (WI-38 cells; 30 μM)
1 | COc1cc(CCC(=O)CC(=O)C(C)(C)C)ccc1O [Compound 2, 6,6-Dimethyl-1-(4-hydroxy-3-methoxyphenyl)-heptane-3,5-dione] | 30 | 76 | 0 | 28 | 8 | 79 | 5 | 27 | 88 | 102 | −2 | 4
2 | COc1cc(CCC(=O)CC(=O)C2(C)CC2)ccc1O [Compound 6, 5-(4-Hydroxy-3-methoxyphenyl)-1-(1-methylcyclopropyl)-pentane-1,3-dione] | 47 | 78 | 0 | 12 | 0 | 34 | -12 | 22 | 88 | 102 | 6 | 4
3 | COc1cc(CCC(=O)C(C)(C)C(=O)c2ccccc2)ccc1O [Compound 32, 2,2-Dimethyl-5-(4-hydroxy-3-methoxy-phenyl)-1-phenyl-pentane-1,3-dione] | 45 | 96 | 15 | 89 | 9 | 93 | 13 | 58 | 67 | 101 | −4 | −3

More lines, main results first:

Row | inhibition at 3 µM (5-lipoxygenase) [%] | inhibition at 30 µM (5-lipoxygenase) [%] | Structure (SMILES) | inhibition at 3 µM [1] [%] | inhibition at 30 µM [1] [%] | inhibition at 3 µM [2] [%] | inhibition at 30 µM [2] [%] | inhibition at 3 µM [3] [%] | inhibition at 30 µM [3] [%] | inhibition at 3 µM [4] [%] | inhibition at 30 µM [4] [%] | Decrease in cell viability (%) (WI-38 cells; 3 μM) | Decrease in cell viability (%) (WI-38 cells; 30 μM)
4 | 89 | 96 | COc1cc(CCC(=O)CC(=O)c2ccccc2)ccc1O [Compound 69, 5-(4-Hydroxy-3-methoxyphenyl)-1-phenyl-pentane-1,3-dione] | 9 | 41 | 9 | 63 | 10 | 34 | 89 | 102 | 3 | 4
5 | 47 | 92 | COc1cc(CCC(=O)C(C)C(=O)c2ccccc2)ccc1O (stereo not drawn) [Compound 11, 5-(4-Hydroxy-3-methoxy-phenyl)-2-methyl-1-phenyl-pentane-1,3-dione] | 0 | 32 | 0 | 53 | 8 | 39 | 79 | 100 | 1 | −7
